pIC50: −log10 of the molar value. Counter-ions that a name gives are not always drawn.
Assays:
[1] = target: Cdk4/Cyclin D (Homo sapiens, UniProt P11802); experiment: Assay for inhibition of Cdk4/Cyclin D (32P incorporation into retinoblastoma protein, filter plate); type: biochemical
Description: (§1) To determine the inhibitory potency and selectivity of compounds of the present invention against Cdk4 and related kinases, compounds were evaluated in standard assays routinely used to measure inhibition of cyclin-dependent kinase enzymes and other protein kinases (see for example D. W. Fry et al., J. Biol. Chem. 2001, 276, 16617-16623). The assays were carried out as described below.
Assay for Inhibition of Cdk4/Cyclin D
The Cdk4 enzyme assay for IC50 determination and kinetic evaluation is performed as follows. 96-well filter plates (Millipore MADVN6550) are used. The total volume is 0.1 mL containing buffer A (20 mM TRIS (tris[hydroxymethyl]aminomethane) (pH 7.4), 50 mM NaCl, 1 mM dithiothreitol, 10 mM MgCl2), 25 [[…] ATP containing 0.25 μCi [^32P]ATP, 20 ng Cdk4, 1 μg retinoblastoma protein and the test compound at appropriate dilutions in buffer A. Buffer A alone without added test compound was employed as a control for no inhibition. Buffer A containing excess EDTA was used to determine the level of background ^32P in the absence of enzyme activity. All components except the ATP are added to the wells, and the plate is placed on a plate mixer for 2 minutes. The reaction is started by adding [^32P]ATP, and the plate is incubated at 25° C. for 15 minutes. The reaction is terminated by addition of 0.1 mL 20% trichloroacetic acid (TCA). The plate is kept at 4° C. for at least 1 hour to allow the substrate to precipitate. The wells are then washed five times with 0.2 mL 10% TCA, and ^32P incorporation is determined with a beta plate counter (Wallac Inc., Gaithersburg, Md.). The IC50 of the test compound was determined using the median effect method (Chou, T-C and Talalay, P. Applications of the median effect principle for the assessment of low-dose risk of carcinogens and for the quantitation of synergism and antagonism of chemotherapeutic agents. In: New Avenues in Developmental Cancer Chemotherapy (Eds. Harrap, K. T. and Connors, T. A.), pp. 37-64. Academic Press, New York, 1987).

[2] = target: Cdk2/cyclin A (Homo sapiens, UniProt P24941); experiment: Assay for inhibition of Cdk2/Cyclin A (32P incorporation into retinoblastoma protein, filter plate); type: biochemical
Description: as §1
Assay for Inhibition of Cdk2/Cyclin A
Cdk2 enzyme assays for IC50 determinations and kinetic evaluation are performed as follows. 96-well filter plates (Millipore MADVN6550) are used. The final assay volume is 0.1 mL containing buffer A (20 mM TRIS (tris[hydroxymethyl]aminomethane) (pH 7.4), 50 mM NaCl, 1 mM dithiothreitol, 10 mM MgCl2), […] containing 0.25 μCi [^32P]ATP, 20 ng Cdk2/cyclin A, 1 μg retinoblastoma protein, and the test compound at appropriate dilutions in buffer A (Buffer A alone without added test compound was employed as a control for no inhibition. Buffer A containing excess EDTA was used to determine the level of background ^32P in the absence of enzyme activity). All components except the ATP are added to the wells, and the plate is placed on a plate mixer for 2 minutes. The reaction is initiated by addition of [^32P]ATP, and the plate is incubated at 25° C. for 15 minutes. The reaction is terminated by addition of 0.1 mL 20% TCA. The plate is kept at 4° C. for at least 1 hour to allow the substrate to precipitate. The wells are then washed five times with 0.2 mL 10% TCA, and ^32P incorporation is determined with a beta plate counter (Wallac Inc., Gaithersburg, Md.). The IC50 of the test compound was determined using the median effect method (Chou, T-C and Talalay, P. Applications of the median effect principle for the assessment of low-dose risk of carcinogens and for the quantitation of synergism and antagonism of chemotherapeutic agents. In: New Avenues in Developmental Cancer Chemotherapy (Eds. Harrap, K. T. and Connors, T. A.), pp. 37-64. Academic Press, New York, 1987).

[3] = system: neointima formation; conditions: in rats; cited from earlier work

Sequence of Cdk4/Cyclin D (P11802 whole entry, species assumed): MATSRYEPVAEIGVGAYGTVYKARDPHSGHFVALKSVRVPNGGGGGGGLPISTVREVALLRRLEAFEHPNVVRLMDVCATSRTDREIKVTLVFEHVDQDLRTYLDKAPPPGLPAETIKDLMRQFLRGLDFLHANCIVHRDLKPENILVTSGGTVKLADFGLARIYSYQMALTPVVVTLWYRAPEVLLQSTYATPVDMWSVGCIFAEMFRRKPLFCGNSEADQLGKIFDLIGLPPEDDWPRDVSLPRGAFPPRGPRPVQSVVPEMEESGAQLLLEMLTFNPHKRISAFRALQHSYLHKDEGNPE
Sequence of Cdk4/Cyclin D (P24385 whole entry partner, species assumed): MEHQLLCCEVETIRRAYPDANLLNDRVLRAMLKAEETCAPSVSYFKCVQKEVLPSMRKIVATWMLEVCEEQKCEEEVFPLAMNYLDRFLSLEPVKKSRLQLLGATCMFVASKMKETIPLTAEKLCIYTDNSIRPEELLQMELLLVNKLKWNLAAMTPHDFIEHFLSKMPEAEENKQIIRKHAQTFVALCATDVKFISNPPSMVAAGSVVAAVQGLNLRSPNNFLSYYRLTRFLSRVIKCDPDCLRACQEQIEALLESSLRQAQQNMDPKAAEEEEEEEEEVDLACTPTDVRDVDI

| Compound | melting point | pIC50 [1] | pIC50 [2] | inhibition of neointima formation [3] |
| --- | --- | --- | --- | --- |
| CCc1nc2cnc(Nc3ccc(N4CCNCC4)cc3)nc2n(C2CCCC2)c1=O [10′, reference compound] | – | 7.55 | 5.38 | – |
| Cc1nc2cnc(Nc3ccc(N4CCNCC4)cc3)nc2n(C2CCCC2)c1=O [8′, reference compound] | – | 7.85 | 6.04 | – |
| COc1ccc2cnc(Nc3ccc(N4CCNCC4)cn3)nc2c1C1CCCC1 [Example 13, (8-Cyclopentyl-7-methoxy-quinazolin-2-yl)-(5-piperazin-1-yl-pyridin-2-yl)-amine] | > 200 °C | 8.40 | 5.77 | – |
| Cc1nc2cnc(Nc3ccc(N4CCNCC4)cn3)nc2n(C2CCCC2)c1=O [Example 8, 8-Cyclopentyl-6-methyl-2-(5-piperazin-1-yl-pyridin-2-ylamino)-8H-pteridin-7-one] | 221 to 223 °C | 6.29 | < 5.30 | – |
| COc1ccc(CNc2nc(N(CCO)CCO)nc3c2ncn3C(C)C)cc1 [CVT-313] | – | – | – | greater than 80% |
| O=C1N(Cc2ccccc2)Cc2cnc(Nc3ccc(N4CCCCC4)cn3)nc2N1C1CCCC1 [Example 15, 3-Benzyl-1-cyclopentyl-7-(3,4,5,6-tetrahydro-2H-[1,3′]bipyridinyl-6′-ylamino)-3,4-dihydro-1H-pyrimido[4,5-d]pyrimidin-2-one] | 194 to 196 °C | – | – | – |
| CCOC(=O)c1cnc(Nc2ccc(N3CCNCC3)cn2)nc1NC1CCCC1 (as salt: hydrochloride) | 180 °C | – | – | – |
| CCc1nc2cnc(Nc3ccc(N4CCNCC4)cn3)nc2n(C2CCCC2)c1=O [Example 10, 8-Cyclopentyl-6-ethyl-2-(5-piperazin-1-yl-pyridin-2-ylamino)8H-pteridin-7-one] | 203 to 208 °C (dec.) | 6.47 | < 5.30 | – |

Continued, in another order:

| melting point | pIC50 [1] | pIC50 [2] | Compound | inhibition of neointima formation [3] |
| --- | --- | --- | --- | --- |
| 218 to 219 °C | – | – | Clc1nc(Nc2ccc(N3CCOCC3)nc2)nc(NC2CCCC2)n1 [Example 14E, 6-Chloro-N-cyclopentyl-N′-(6-morpholin-4-yl-pyridin-3-yl)-[1,3,5]triazine-2,4-diamine] | – |
| 218 to 219 °C | – | – | CNc1nc(Nc2ccc(N3CCOCC3)cc2)nc(NC2CCCC2)n1 [Example 14D, N-Cyclopentyl-N′-methyl-N″-(4-morpholin-4-yl-phenyl)-[1,3,5]triazine-2,4,6-triamine] | – |
